US4600540A, “Benzoylpropionic acid derivatives” (Taisho Pharmaceutical Co., Ltd., priority 1984, dated 1986)

Experiments:
[1] = test system: adjuvant arthritis in Lewis rats; assay: Effect on adjuvant arthritis in Lewis rats (Cellular immunostimulation); type: in vivo; conditions: 100 mg/Kg orally once a day, 21 days after sensitization; for Tumor stimulating ratio: control = 1.00; for Edema volume: hind paw
Method: Effect on adjuvant arthritis in Lewis rats
(Cellular immunostimulation)
10 Female Lewis rats, 9 weeks old, weighing 180-190 g were used per each group. Rats of each group were administered subcutaneously into the tail with a suspension of 0.6 mg of heated killed mycobaterium butyricum in liquid parafin. Each of the compounds I, suspended in a 5% gum arabic solution, was administered orally once a day to rats of different groups in an amounts of 100 mg/Kg after sensitization. As a comparative drug was used D-penicillamine in the form of an aqueous solution, which was administered orally to rats of different groups in a manner similar to the compound I.
In intervals were measured the edema volume of the hind paw of rats in the drug-treated groups and the control (the drug-untreated groups) for evaluating the tumor stimulating activity of the drug.

Acute toxicity = conditions: rat, in vivo; oral, male Wister rats, observed for 7 days
Method: 7 male, 7 weeks old, Wister rats weighing 149-160 g were used per each for test. Rats were administered orally with a suspension of the compound I of Example 1 in a 5% gum arabic solution and observed for 7 days after administration, and the LD50 value was calculated.

[2] = test system: adjuvant arthritis in Sprague-Dawley rats; assay: Effect on adjuvant arthritis in Sprague-Dawley rats (chronic rheumatoid arthritis model); type: in vivo; conditions: 21 days after sensitization; for Edema volume: hind paw; for Paw edema suppression rate: vs control
Method: Effect on adjuvant arthritis is Sprague-Dawley rats
(chronic rheumatoid arthritis model)
10 Female Sprague-Dawley rats, 8 weeks old, weighting 160-190 g were used per each group. Rats of each group were administered subcutaneously into the tail with a suspension of 0.6 mg of heated killed mycobaterium butyricum in liquid parafin. Each of the compounds I, suspended in a 5% gum arabic solution, was administered orally once a day to rats of different groups in different amounts after sensitization.
At intervals were measured the edema volume of the hind paw of rats in the drug-treated groups and the control (drug-untreated groups) for evaluating tumor suppression activity of the compounds I.

spleen lymphocytes [3] = assay: Stimulating effect of lymphocytes transformation (3H-thymidine uptake, mitogenation); type: cell-based, BDF1 mice; conditions: Mus musculus, Lymphocyte, B medium (with lipopolysaccharide 0.2 μg/ml); 0.3 μg/ml
Method: Stimulating effect of lymphocytes transformation
(Immunomodulative stimulating effect)
Mediums of RPMI-1640 (produced by GIBCO Co.) containing the compound I only (A medium), and containing a mitogen (lipopolysaccharide 0.2 μg/ml) and the compound I (B medium) were prepared.
2×10^5 of spleen lymphocytes of female BDF1 mice, 8-12 weeks old, weighing 20-22 g were cultured on each of the mediums at 37° C. for 48 hours under a 5% carbon dioxide in air. 0.25 μCi of ^3 H-thymidine was added to each of the mediums, and cultivation was further carried out for 22 hours. After completion of the cultivation, the lymphocytes were collected and their radio activity was measured to calculate the ^3 H-thymidine uptake into the lymphocytes for evaluating mitogenation.
The results were expressed as percent to ^3 H-thymidine uptake into lymphocytes in the control medium (not containing the compound I) and shown in Table 4.

[4] = test system: delayed-type footpad reaction; assay: Effect on delayed-type footpad reaction (Cellular immunomodulating effect); type: in vivo, Balb/c mice; conditions: 2 hours after sensitization
Method: Effect on delayed-type footpad reaction
(Cellular immunomodulating effect)
8 Female Balb/c mice, 8-12 weeks oil, weighing 20-24 g were used per each group. Mice of each group were administered subcutaneously into the right footpad with 1×10^8 sheep red blood cells as antigen to be sensitized.
Each of the compounds I, suspended in a 0.5% gum arabic saline solution, was administered intraperitoneally to mice of different groups in different amounts 2 hours after the sensitization.
Four days after the sensitization, mice of each group were administered subcutaneously into the left footpad with 1×10^8 sheep red blood cells, and the increase of thickness of swelling footpad was measured for evaluating the suppression to the delayed-type footpad reaction according to the method of Lagrange et al [Journal of Experimental Medicine, vol. 139, page 528,(1974)].

spleen lymphocytes [5] = assay: Stimulating effect of lymphocytes transformation (3H-thymidine uptake, mitogenation); type: cell-based, BDF1 mice; conditions: Mus musculus, Lymphocyte; for activity at 0.3 µg/mL: 0.3 μg/ml; for activity at 1 µg/mL: 1 μg/ml; for activity at 3 µg/mL: 3 μg/ml; for activity at 10 µg/mL: 10 μg/ml; for activity at 30 µg/mL: 30 μg/ml
[6] = B medium (with lipopolysaccharide 0.2 μg/ml)

Q: Which Tumor stimulating ratio [1] does the source give for `CC(C)(S)[C@@H](N)C(=O)O` [D-penicillamine, reference compound] here?
A: 1.38

Q: What about the Edema volume [1] of the same molecule?
A: 3.76 ± 0.11 mL

Q: What does the source list for `CC(=O)SCC(CC(=O)c1ccccc1)C(=O)O` (centres unmarked) [Example 1, 2-acethylthiomethyl-3-benzoylpropionic acid]?
A: LD50 at 168 h (Acute toxicity): > 1200 mg/kg; Edema volume ([2]; 30 mg/kg orally once a day): 0.58 ± 0.18 mL; Paw edema suppression rate ([2]; 30 mg/kg orally once a day): 69.0%; activity at 0.3 µg/mL (spleen lymphocytes [3]): 134%; Increase of thickness of swelling footpad ([4]; 10 mg/kg intraperitoneally): 102.5 ± 10.8 × 10^-2 mm; Suppression rate of delayed-type footpad reaction ([4]; 10 mg/kg intraperitoneally): 37.7; Increase of thickness of swelling footpad ([4]; 100 mg/kg intraperitoneally): 80.6 ± 8.0 × 10^-2 mm; Suppression rate of delayed-type footpad reaction ([4]; 100 mg/kg intraperitoneally): 51.0; activity at 0.3 µg/mL (spleen lymphocytes [5]; A medium (compound only)): 120%; activity at 1 µg/mL (spleen lymphocytes [5]; A medium (compound only)): 114%; activity at 3 µg/mL (spleen lymphocytes [5]; A medium (compound only)): 129%; activity at 10 µg/mL (spleen lymphocytes [5]; A medium (compound only)): 128%; activity at 30 µg/mL (spleen lymphocytes [5]; A medium (compound only)): 149%; activity at 1 µg/mL (spleen lymphocytes [5]; [6]): 146%; activity at 3 µg/mL (spleen lymphocytes [5]; [6]): 177%; activity at 10 µg/mL (spleen lymphocytes [5]; [6]): 217%; activity at 30 µg/mL (spleen lymphocytes [5]; [6]): 241%

Q: Which Tumor stimulating ratio [1] does the source give for `CC(=O)SCC(CC(=O)c1ccc(F)cc1)C(=O)O` (centres unmarked) [Example 2] here?
A: 1.27

Q: And the Edema volume [1]?
A: 3.46 ± 0.47 mL

Q: Which Tumor stimulating ratio [1] does the source give for `CC(=O)SCC(CC(=O)c1ccc(Cl)cc1)C(=O)O` (centres unmarked) [Example 3] here?
A: 1.18

Q: And the Edema volume [1]?
A: 3.22 ± 0.09 mL

Q: With `CC(=O)SCC(CC(=O)c1ccc(Br)cc1)C(=O)O` (centres unmarked) [Example 4, 2-acetylthiomethyl-3-(4-bromobenzoyl)propionic acid] as the molecule, how does the Tumor stimulating ratio [1] read?
A: 1.20

Q: What about the Edema volume [1] of the same molecule?
A: 3.27 ± 0.28 mL

Q: What about the Edema volume ([2]; 30 mg/kg orally once a day) of the same molecule?
A: 0.64 ± 0.29 mL

Q: And the “Paw edema suppression rate” value ([2]; 30 mg/kg orally once a day)?
A: 65.8%

Q: What about the Edema volume ([2]; 100 mg/kg orally once a day) of the same molecule?
A: 0.36 ± 0.14 mL

Q: What about the “Paw edema suppression rate” value ([2]; 100 mg/kg orally once a day) of the same molecule?
A: 80.7%

Q: And the Edema volume ([2]; 300 mg/kg orally once a day)?
A: 0.12 ± 0.09 mL

Q: What about the “Paw edema suppression rate” value ([2]; 300 mg/kg orally once a day) of the same molecule?
A: 93.6%

Q: What about the activity at 0.3 µg/mL (spleen lymphocytes [3]) of the same molecule?
A: 115%

Q: What about the “Increase of thickness of swelling footpad” value ([4]; 10 mg/kg intraperitoneally) of the same molecule?
A: 115.6 ± 4.8 × 10^-2 mm

Q: And the “Suppression rate of delayed-type footpad reaction” value ([4]; 10 mg/kg intraperitoneally)?
A: 8.5

Q: And the “Increase of thickness of swelling footpad” value ([4]; 100 mg/kg intraperitoneally)?
A: 89.4 ± 5.5 × 10^-2 mm

Q: And the “Suppression rate of delayed-type footpad reaction” value ([4]; 100 mg/kg intraperitoneally)?
A: 29.3

Q: What about the activity at 0.3 µg/mL (spleen lymphocytes [5]; A medium (compound only)) of the same molecule?
A: 83%

Q: And the activity at 3 µg/mL (spleen lymphocytes [5]; A medium (compound only))?
A: 97%

Q: And the activity at 30 µg/mL (spleen lymphocytes [5]; A medium (compound only))?
A: 117%

Q: And the activity at 3 µg/mL (spleen lymphocytes [5]; [6])?
A: 107%

Q: And the activity at 30 µg/mL (spleen lymphocytes [5]; [6])?
A: 131%

Q: Which Tumor stimulating ratio [1] does the source give for `COc1ccc(C(=O)CC(CSC(C)=O)C(=O)O)cc1` (centres unmarked) [Example 7] here?
A: 1.25

Q: What about the Edema volume [1] of the same molecule?
A: 3.41 ± 0.19 mL

Q: For `O=C(CC(CSC(=O)c1ccccc1)C(=O)O)c1ccccc1` (centres unmarked) [Example 13, 3-benzoyl-2-benzoylthiomethylpropionic acid], which Tumor stimulating ratio [1] is on record?
A: 1.33

Q: And the Edema volume [1]?
A: 3.63 ± 0.11 mL

Q: For `CCOC(=O)C(CSC(C)=O)CC(=O)c1ccccc1` (centres unmarked) [Example 16, ethyl 2-acethylthiomethyl-3-benzoylpropionate], which Tumor stimulating ratio [1] is on record?
A: 1.17

Q: And the Edema volume [1]?
A: 3.18 ± 0.17 mL
